Experimental data from PMC5282955, “Fatty acid binding profile of the liver X receptor α” (Journal of Lipid Research, 2017).
Values belong to the molecule of their own block, whether it stands above or below them.

How the values were obtained:
Assay type in all cases: binding
LXRα [1] = target: T1, LXRα (Homo sapiens, UniProt Q13133); experiment: intrinsic aromatic fluorescence quenching (positive control), CD; LXRE reporter activation
T1 construct: gene NR1H3
T1 sequence (Q13133 1-447): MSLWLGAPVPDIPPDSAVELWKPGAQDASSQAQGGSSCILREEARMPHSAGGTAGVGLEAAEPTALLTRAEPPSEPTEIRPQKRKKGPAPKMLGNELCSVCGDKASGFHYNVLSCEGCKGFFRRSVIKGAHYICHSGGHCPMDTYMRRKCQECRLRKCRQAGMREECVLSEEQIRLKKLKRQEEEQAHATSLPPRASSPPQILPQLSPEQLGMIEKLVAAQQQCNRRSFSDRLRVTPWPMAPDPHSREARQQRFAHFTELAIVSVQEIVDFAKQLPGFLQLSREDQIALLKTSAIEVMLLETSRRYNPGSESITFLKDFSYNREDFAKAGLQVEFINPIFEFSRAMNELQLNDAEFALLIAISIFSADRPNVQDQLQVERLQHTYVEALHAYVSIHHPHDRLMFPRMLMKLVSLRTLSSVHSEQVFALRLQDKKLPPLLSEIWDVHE

LXRα [2] = target: T1, LXRα; experiment: intrinsic aromatic fluorescence quenching; also displacement of BODIPY C16-CoA (Ki […]); CD
LXRα [3] = target: T1, LXRα; experiment: as above; remark: listed apart in the source
LXRα [4] = target: T1, LXRα; experiment: displacement of LXRα-bound BODIPY C16-CoA; CD change
LXRα [5] = target: T1, LXRα; experiment: intrinsic aromatic fluorescence quenching; displacement Ki […]; LXRE reporter activation
LXRα [6] = target: T1, LXRα; experiment: intrinsic aromatic fluorescence quenching; also displacement of BODIPY C16-CoA (Ki […])
LXRα [7] = target: T1, LXRα; experiment: as above; remark: listed apart in the source

Kd (LXRα [5]): 11 ± 4 nM
Structure (SMILES): CCCCCCCCCCCC(=O)O [C12:0, Lauric acid]

Kd (LXRα [6]): 18 ± 8 nM
Structure (SMILES): CCCCCCCCCCCC(=O)SCCNC(=O)CCNC(=O)[C@H](O)C(C)(C)COP(=O)(O)OP(=O)(O)OC[C@H]1O[C@@H](n2cnc3c(N)ncnc32)[C@H](O)[C@@H]1OP(=O)(O)O [C12:0-CoA, Lauroyl-CoA]

Kd (LXRα [7]): 14 ± 7 nM
Structure (SMILES): CCCCCCCCCCCCCCCC(=O)SCCNC(=O)CCNC(=O)[C@H](O)C(C)(C)COP(=O)(O)OP(=O)(O)OC[C@H]1O[C@@H](n2cnc3c(N)ncnc32)[C@H](O)[C@@H]1OP(=O)(O)O [C16:0-CoA, Palmitoyl-CoA]

Further lines, the molecule ahead of its results:

Structure (SMILES): C[C@H](CCCC(C)(C)O)[C@H]1CC[C@H]2[C@@H]3CC=C4C[C@@H](O)CC[C@]4(C)[C@H]3CC[C@]12C [25-HC, 25-hydroxycholesterol]
intrinsic aromatic fluorescence quenching (positive control), CD; LXRE reporter (LXRα [1]): Binding with T-0901317 and 25-hydroxycholesterol (positive controls) yielded binding curves that were sharply saturable

Structure (SMILES): CCCCCCCC(=O)SCCNC(=O)CCNC(=O)[C@H](O)C(C)(C)COP(=O)(O)OP(=O)(O)OC[C@H]1O[C@@H](n2cnc3c(N)ncnc32)[C@H](O)[C@@H]1OP(=O)(O)O [C8:0-CoA, Octanoyl-CoA]
Kd (LXRα [2]): 15 ± 5 nM

Structure (SMILES): CCCCCCCCCC(=O)O [C10:0, Decanoic acid]
Kd (LXRα [3]): 15 ± 6 nM

Structure (SMILES): CCCCCCCCCC(=O)SCCNC(=O)CCNC(=O)[C@H](O)C(C)(C)COP(=O)(O)OP(=O)(O)OC[C@H]1O[C@@H](n2cnc3c(N)ncnc32)[C@H](O)[C@@H]1OP(=O)(O)O [C10:0-CoA, Decanoyl-CoA]
Ki (LXRα [4]): 7 ± 3 nM
